Reference: US8003812B2, “C10 cyclopentyl ester substituted taxanes” (priority 2004, dated 2011)
Values joined by “and” are separate entries in the source; they are usually repeats but may differ in a detail not shown here. Equal entries are not always repeated. Where two headings read alike, the source gives them in different places.

Legend:
[1] = system: HT29 (human colon carcinoma) xenograft; conditions: for Efficacy Score = 10*(TWd1−TWdn)/TWd1: single dose IV
Text: Score=10*(TWd1−TWdn)/TWd1, where
TWd1=tumor weight on day 1
(§2) TWDn=lowest tumor weight on day 10 or later
(§3) Thus the best score for complete regression would be 10.

[2] = system: HT29 (human colon carcinoma) xenograft; conditions: for # Death NTR / # Death TR / MDS to 1.0 g ± SEM (n) / Efficacy Score = 10*(TWd1−TWdn)/TWd1: HT29; for # Death NTR / # Death TR: 6 mice; for Efficacy Score = 10*(TWd1−TWdn)/TWd1: best score 10; for Max. % BW Loss; Day: mouse, in vivo, po
Text: Score=10*(TWd1−TWdn)/TWd1, where
TWd1=tumor weight on day 1
as §2, §3

[3] = system: HCT 116 human colon carcinoma; experiment: In vitro cytotoxicity, cell colony formation assay, HCT116; format: cell-based; conditions: 72 h drug incubation
Protocol: (§1) The cells were incubated in a CO2 incubator at 37° C. for 5 h for attachment to the bottom of Petri dishes. The compound of the present invention was made up fresh in medium at ten times the final concentration, and then 0.3 mL of this stock solution was added to the 2.7 mL of medium in the dish. The cells were then incubated with drugs for 72 h at 37° C. At the end of incubation the drug-containing media were decanted, the dishes were rinsed with 4 mL of Hank's Balance Salt Solution (HBSS), 5 mL of fresh medium was added, and the dishes were returned to the incubator for colony formation. The cell colonies were counted using a colony counter after incubation for 7 days. Cell survival was calculated and the values of IC50 (the drug concentration producing 50% inhibition of colony formation) were determined for each tested compound.

[4] = system: VM46 (resistant variant of human colon carcinoma HCT 116); experiment: In vitro cytotoxicity, cell colony formation assay, VM46; format: cell-based; conditions: 72 h drug incubation
Protocol: as §1
Identical assessments were carried out using VM46 (resistant variant of human colon carcinoma HCT 116 obtained from Dr. Li-Xi, M.D, Ph.D., California Pacific Medical Center, CA).

[5] = system: human pancreatic tumor xenograft Panc-1; conditions: for No. of CR / No. of LTTES / No. of PR: 6 mice; for Median TTE: endpoint 1200 mg; for Efficacy Score = 10*(TWd1−TWdn)/TWd1: best score 10; for No. of NTR / No. of TR: mouse, in vivo, po;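 on all read-outs here: Panc-1 fragments grown subcutaneously in athymic nude mice, one oral dose given on Day 1, six mice per group, tumor endpoint 1200 mm^3, control is Group 1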
Protocol: The tumor used for this study was maintained in athymic nude mice. A tumor fragment (1 mm^3) was implanted s.c. into the right flank of each test mouse. Tumors were monitored twice weekly and then daily as their volume approached 200-400 mm^3 with a mean of 250-300 mm^3. On Day 1 of the study, the animals were sorted into treatment groups with tumor sizes of 171.5-320.0 mm^3 and group mean tumor sizes of 212.6-216.0 mm^3. Tumor size, in mm^3, was calculated from the following formula:
[formula] where w=width and l=length in mm of the tumor. Tumor weight was estimated with the assumption that 1 mg is equivalent to 1 mm^3 of tumor volume. […] All treatments were administered orally, once on Day 1 (qd×1). […] In all groups, the dosing volume of 0.6 mL/20 g mouse was scaled to the body weight of each animal. Each animal was euthanized when its neoplasm reached the predetermined endpoint size (1200 mm^3). The time to endpoint (TTE) for each mouse was calculated by the following equation:
[formula] where TTE is expressed in days, endpoint volume is in mm^3, b is the intercept, and m is the slope of the line obtained by linear regression of a log-transformed tumor growth data set. The data set is comprised of the first observation that exceeded the study endpoint volume and the three consecutive observations that immediately preceded the attainment of the endpoint volume. […] Animals classified as TR (treatment-related) deaths or NTRM (non-treatment-related metastasis) deaths are assigned a TTE value equal to the day of death. Animals classified as NTR (non-treatment-related) deaths are excluded from TTE calculations. Treatment efficacy was determined from tumor growth delay (TGD), which is defined as the increase in the median TTE for a treatment group compared to the control group: TGD=T−C, expressed in days, or as a percentage of the median TTE of the control group:
[formula] where: • T=median TTE for a treatment group and • C=median TTE for control Group 1.
Treatment may cause partial regression (PR) or complete regression (CR) of the tumor in an animal. In a PR response, the tumor volume is 50% or less of its Day 1 volume for three consecutive measurements during the course of the study, and equal to or greater than 13.5 mm^3 for one or more of these three measurements. In a CR response, the tumor volume is less than 13.5 mm^3 for three consecutive measurements during the course of the study. An animal with a CR response at the termination of a study is additionally classified as a long-term tumor-free survivor (LTTFS).
With respect to toxicity, the animals were weighed daily on Days 1-5, then twice weekly until the completion of the study. The mice were examined frequently for overt signs of any adverse, drug-related side effects. Acceptable toxicity for the maximum tolerated dose (MTD) of a cancer drug in mice is defined by the NCl as a group mean body-weight (BW) loss of less than 20% during the test, and not more than one toxic death among ten treated animals. The log rank test was employed to analyze the significance of the difference between the TTE values of a drug-treated group and the vehicle-treated control group. The log rank test analyzes the data for all animals except the NTR deaths. The two-tailed statistical analyses were conducted at P=0.05. The group median tumor growth curves show the median tumor volume (MTV) as a function of time. When an animal exited the study due to tumor size or TR death, the final tumor volume recorded for the animal was included with the data used to calculate the median volume at subsequent time points.

Sprague-Dawley rats = experiment: In vivo toxicity assessment in rats, intravenous
Protocol: Toxicity was assessed in 250-300g Sprague-Dawley rats and three rats were used per dose group. Three dose groups of the test compound, (i.e., 3 mg/kg, 9 mg/kg and 12 mg/kg for intravenous administration; 15 mg/kg, 30 mg/kg and 40 mg/kg) and 1 control group constituted a study. Animals were observed and clinical chemistry data collected at days 4 and 10. Rats were euthanized on day 11 and the nerves were excised and fixed upon euthanization for further examination.
Each rat is scored as described below and a final toxicity score that incorporates all parameters is assigned. A dead rat is assigned a score of zero. Most of the parameters contribute a positive value towards a total possible score of 130. For body weight, white blood cell, and platelet decreases, recovery is considered. […] The total score is divided by 13 to put it on a scale from 0 to 10.

[6] = system: DLD-1 (resistant human colon carcinoma); experiment: In vitro cytotoxicity, MTT assay, DLD-1; format: cell-based
[7] = Group 5: 120 mg/kg IV QD × 1 in 5% E-95% I-20, 6 mice
[8] = Group 6: 60 mg/kg IV QD × 1 in 5% E-95% I-20, 6 mice
[9] = Group 7: 120 mg/kg IV QD × 1 in 5% ET in Saline, 6 mice
[10] = Group 8: 60 mg/kg IV QD × 1 in 5% ET in Saline, 6 mice
[11] = Group 9: 120 mg/kg IV QD × 1 in 5% EC in Saline, 6 mice
[12] = Group 10: 60 mg/kg IV QD × 1 in 5% EC in Saline, 6 mice
[13] = Group 14: 30 mg/kg IV Q4d × 4 in 5% E-95% I-20, 6 mice
[14] = Group 15: 20 mg/kg IV Q4d × 4 in 5% E-95% I-20, 6 mice
[15] = Group 16: 30 mg/kg IV Q4d × 4 in 5% ET in Saline, 6 mice
[16] = Group 17: 20 mg/kg IV Q4d × 4 in 5% ET in Saline, 6 mice
[17] = Group 18: 30 mg/kg IV Q4d × 4 in 5% EC in Saline, 6 mice
[18] = Group 19: 20 mg/kg IV Q4D × 4 in 5% EC in Saline, 6 mice
[19] = Panc-1, Group 2: 120 mg/kg po qd × 1
[20] = Panc-1, Group 2: 120 mg/kg po qd × 1, 120 mg/kg
[21] = Panc-1, Group 3: 60 mg/kg po qd × 1
[22] = Panc-1, Group 3: 60 mg/kg po qd × 1, 60 mg/kg
[23] = IV, second IV 9091 line (two IV dosage regimens)

In the case of CC(=O)OC12COC1CC(O)C1(C)C(=O)C(OC(=O)C3CCCC3)C3=C(C)C(OC(=O)C(O)C(NC(=O)OC(C)C)c4cccs4)CC(O)(C(OC(=O)c4ccccc4)C21)C3(C)C (stereo not shown) [Compound 9091], the “# Death NTR” value [1, 7] was 0, the “# Death TR” value [1, 7] was 0 and the “MDS to 1.0 g ± SEM (n)” value ([1]; Group 6: 60 mg/kg IV QD × 1 in 5% E-95% I-20) was 51.9 ± 0.0. For the same compound, the “# Death NTR” value [1, 8] was 0, the “# Death TR” value [1, 8] was 0 and the “# Death NTR” value [1, 9] was 0. The “# Death TR” value [1, 9] was 5, the “MDS to 1.0 g ± SEM (n)” value ([1]; Group 8: 60 mg/kg IV QD × 1 in 5% ET in Saline) was 51.8± and the “# Death NTR” value [1, 10] was 0. For the same compound, the “# Death TR” value [1, 10] was 0, the “# Death NTR” value [1, 11] was 0 and the “# Death TR” value [1, 11] was 0. For the same compound, the “MDS to 1.0 g ± SEM (n)” value ([1]; Group 10: 60 mg/kg IV QD × 1 in 5% EC in Saline) was 46.0±, the “# Death NTR” value [1, 12] was 0 and the “# Death TR” value [1, 12] was 0. For the same compound, the “# Death NTR” value [1, 13] was 0, the “# Death TR” value [1, 13] was 0 and the “# Death NTR” value [1, 14] was 0. For the same compound, the “# Death TR” value [1, 14] was 0, the “# Death NTR” value [1, 15] was 0 and the “# Death TR” value [1, 15] was 0. For the same compound, the “# Death NTR” value [1, 16] was 0, the “# Death TR” value [1, 16] was 0 and the “# Death NTR” value [1, 17] was 0. The “# Death TR” value [1, 17] was 0, the “# Death NTR” value [1, 18] was 0 and the “# Death TR” value [1, 18] was 0. For the same compound, the “Efficacy Score = 10*(TWd1−TWdn)/TWd1” value ([1]; Dose 60, best score 10) was 8, the “Efficacy Score = 10*(TWd1−TWdn)/TWd1” value ([1]; Dose 120, best score 10) was 8.7 and the “# Death NTR” value ([2]; Group 18: 15 mg/kg po q4d × 4) was 0. For the same compound, the “# Death TR” value ([2]; Group 18: 15 mg/kg po q4d × 4) was 0, the “MDS to 1.0 g ± SEM (n)” value ([2]; Group 18: 15 mg/kg po q4d × 4, n=6) was 24.4 ± 1.4 (6) and the “# Death NTR” value ([2]; Group 19: 30 mg/kg po q4d × 4) was 0. The “# Death TR” value ([2]; Group 19: 30 mg/kg po q4d × 4) was 0, the “MDS to 1.0 g ± SEM (n)” value ([2]; Group 19: 30 mg/kg po q4d × 4, n=1) was 25.6 ± (1) and the “# Death NTR” value ([2]; Group 20: 45 mg/kg po q4d × 4) was 0. For the same compound, the “# Death TR” value ([2]; Group 20: 45 mg/kg po q4d × 4) was 0, the “# Death NTR” value ([2]; Group 21: 60 mg/kg po q4d × 4) was 0 and the “# Death TR” value ([2]; Group 21: 60 mg/kg po q4d × 4) was 4. The “Efficacy Score = 10*(TWd1−TWdn)/TWd1” value ([2]; single dose oral 60 mg/kg) was 4.3, the “Efficacy Score = 10*(TWd1−TWdn)/TWd1” value ([2]; single dose oral 120 mg/kg) was 8.7 and the “Max. % BW Loss; Day” value ([2]; 30 mg/kg) was −11.3%;. The “Max. % BW Loss; Day” value ([2]; 45 mg/kg) was −22.6%;, the “Max. % BW Loss; Day” value ([2]; 60 mg/kg) was −28.1%; and the IC50 [3] was 0.6 nM and 0.63 nM. The IC50 [4] was 1.9 nM and 1.87 nM, the “T − C” value [5, 19] was 40.1 days and the “% TGD” value [5, 20] was 212%. For the same compound, the “No. of CR” value [5, 19] was 3, the “No. of LTTES” value [5, 19] was 3 and the “No. of PR” value [5, 19] was 3. The “Tumor Burden Median(n), Day 59 (MTV)” value [5, 20] was 56 mm^3 and 56 (6) mm^3, the “Median TTE” value [5, 19] was 59.0 days and the “T − C” value [5, 21] was 40.1 days. The “% TGD” value [5, 22] was 212%, the “No. of CR” value [5, 21] was 1 and the “No. of LTTES” value [5, 21] was 1. For the same compound, the “No. of PR” value [5, 21] was 5, the “Tumor Burden Median(n), Day 59 (MTV)” value [5, 22] was 148 mm^3 and 148 (6) mm^3 and the “Median TTE” value [5, 21] was 59.0 days. The survival ([5]; Panc-1, at both the 120 and 60 mg/kg dose, po qd × 1) was 100%, the regression responses ([5]; Panc-1, at both the 120 and 60 mg/kg dose, po qd × 1, 6 mice per group) was “six” and the “Efficacy Score = 10*(TWd1−TWdn)/TWd1” value ([5]; Panc-1, single dose oral 60 mg/kg) was 8.3. For the same compound, the “Efficacy Score = 10*(TWd1−TWdn)/TWd1” value ([5]; Panc-1, single dose oral 120 mg/kg) was 9.1, the “No. of NTR” value ([5]; 60 mg/kg) was 0 and the “No. of TR” value ([5]; 60 mg/kg) was 0. For the same compound, the “No. of NTR” value ([5]; 120 mg/kg) was 0, the “No. of TR” value ([5]; 120 mg/kg) was 0 and the “Tox Score, Dose 3 mg” value (Sprague-Dawley rats; IV, scale 0 to 10) was 9. The “Tox Score, Dose 3 mg” value (Sprague-Dawley rats; [23]) was 9.5, the “Tox Score, Dose 9 mg” value (Sprague-Dawley rats; IV, scale 0 to 10) was 7.1 and the “Tox Score, Dose 9 mg” value (Sprague-Dawley rats; [23]) was 8.1. The “Tox Score, Dose 12 mg” value (Sprague-Dawley rats; IV, scale 0 to 10) was 7.8, the “Tox Score, Dose 12 mg” value (Sprague-Dawley rats; [23]) was 6.8 and the “Tox Score, Weighted Avg” value (Sprague-Dawley rats; IV, Wt Avg = (Σ(dose × grp score))/24) was 7.7. For the same compound, the “Tox Score, Average” value (Sprague-Dawley rats; IV, average of 3 dose groups) was 7.9, the “Tox Score, Average” value (Sprague-Dawley rats; [23]) was 8.1 and the “Tox Score, Weighted Avg” value (Sprague-Dawley rats; [23]) was 7.6. For the same compound, the “Rat tox score IV (second value in cell)” value (Sprague-Dawley rats; IV, second of two values printed for 9091 (two IV regimens)) was 8, 8, the “Rat tox score IV” value (Sprague-Dawley rats; IV, summary score, scale 0 to 10) was 8, 8 and the “toxicity profile in rats compared with congeners” value (Sprague-Dawley rats; administered intravenously) was “best toxicity profile”. It also gave an IC50 [6] of 1.5 nM.
